Results taken from a melting point compilation (Tetko et al.; mined from patent text by program, amines drawn as free bases though some values may be those of a salt).

Compound | melting point [°C]
c1ccc2c(c1)c(-c1cc3nccnc3[nH]1)cn2CCCN1CCOCC1 | 180 to 185
O=C(O)CCCn1nc(-c2c(-c3ccccc3)nn3ccccc23)ccc1=O | 240
Cc1cc(C(=O)N2Cc3cccn3Cc3ccccc32)ccc1NC(=O)c1ccc(Cl)cc1Cl | 213 to 215
O=[N+]([O-])c1cccc(SC(CCl)S(=O)(=O)c2cccc([N+](=O)[O-])c2)c1 (centres undefined) | 98 to 110
N#CCCN(C(N)=O)C1CCCCC1 | 110 to 112
NS(=O)(=O)c1ccc(N2CN(c3ccccc3)CC2=O)cc1Cl | 257 to 259
COc1ccc(Sc2cncc3sc(C(N)=O)cc23)cc1 | 219 to 221
CCCCN1CC=C(c2c[nH]c3ccc(NS(C)(=O)=O)cc23)CC1 | 202 to 204
Cc1ccc2oc(OCC(=O)N(c3ccccc3)C(C)C)nc2c1 | 108
CC12CCC(=O)C(CSc3ccccc3)=C1CCC1C2CCC2(C)C1C=CC2(C)O (centres undefined) | 147
Cc1ccccc1C(=O)Nc1ccc(C(=O)N2Cc3ccnn3Cc3ccccc32)c(Cl)c1 | 241 to 244
COc1cc(C)c(C)c2c1CCC2=O | 127 to 128
CC[C@H](Cc1sccc1Cl)Nc1ccnc(O)c1[N+](=O)[O-] | 150 to 152
CCCn1nc(CO)cc1OCc1ccc2ccccc2n1 | 98 to 99
Oc1ccc(-c2nn(-c3cc(Cl)ccc3Cl)c3cc(O)ccc23)c(O)c1 | 78 to 80
CN1C(=O)c2ccccc2OC1(C)COc1ccc(N)cc1 (centres undefined) | 162 to 164
Cc1cc(-c2c(-c3ccc(S(C)(=O)=O)cc3)cnn(-c3cccc(Cl)c3)c2=O)ccc1F | 228 to 230
CCCN1NCc2c(C3C(=O)Nc4ccc(Cl)cc43)ncnc21 (centres undefined) | 293 to 297
Cc1ccc(C)c(OCCO)c1 | 45 to 48
CC=CC(=O)N(CCCC(=O)O)C(C)(C)CC(C)(C)C | 92 to 93
CC(C)(C)C1OCC(S)(CCO)CO1 (centres undefined) | 68
CN(C)CCOc1ccc(CNC(=O)c2ccccc2N)cc1 | 104 to 105
O=C(c1ccc(-n2cncn2)cc1)N1CCC(NCc2ccccc2)CC1 | 137 to 138
O=C(OCc1ccccc1)C(CC(=O)N1Cc2cscc2C1)Cc1ccccc1 (centres undefined) | 122 to 124
Cc1cc(C(C)(C)C)c(OP2OCCN2C(C)(C)C)c(C(C)(C)C)c1 (centres undefined) | 105 to 107

Compound | melting point [°C]
CCCCCCCCCCCCCCCCCCOc1cc(OCCCOc2ccc(C(C)(C)C)cc2)cc(N(CC(=O)OC)CC(=O)OC)c1 | 56 to 58
COCCNC(=O)c1cc2c(nc(C)n2C)c2c1CCC1(Cc3ccccc3C1)N2 | 186 to 187
CN1c2ccc(Cl)cc2C(c2ccccc2Cl)=Nc2cccnc21 | 150 to 152
O=C(O)c1cc2cc(C(F)(F)F)cnc2n1Cc1ccncc1 | 302 to 303
CCCCc1c(C(=O)N(C)Cc2ccc3c(Br)c(OCC(Cc4ccccc4)C(=O)O)ccc3c2)oc2ccccc12 (centres undefined) | 64 to 68
Cc1cccc(Oc2c(-c3ccc(S(C)(=O)=O)cc3)oc(C)cc2=O)c1 | 162
CC(=O)N[C@@H]1CN2C(=O)N(c3cc(Cl)cc(Cl)c3)C(=O)[C@@]2(Cc2ccc(Br)cc2)C1 | 141
COc1c(C)cnc(CS(=O)c2nc3c(C)c(OC)c(C)cc3[nH]2)c1C (centres undefined) | 137
CC(=O)NC1Cc2ccc(S(=O)(=O)Cl)cc2C1 (centres undefined) | 237 to 239
CC(C)n1nc(-c2c(-c3ccccc3)nn3ccc(Oc4ccccn4)cc23)ccc1=O | 140 to 142
O=C(CN1CCNCCNCCNCC1)Nc1c(I)cc(I)c(C(=O)O)c1I | 245 to 246
CCCCNC(=O)Nc1ccc(N(C)C)cc1C(=O)NCC1CCN(C(c2ccccc2)c2ccccc2)CC1 | 201 to 203
Cc1ccc2nc(NC3=NCCN3)[nH]c2c1 | 264 to 266
COc1cc2c(cc1-c1c(C)nn(C)c1C)-c1c(-c3cccs3)c3c(n1CC2)C(=O)N(C(C)C)CCN(C(=O)C(C)C)C3 | 232 to 235
CCCCc1nc([N+](=O)[O-])c(CSc2ccccc2C(=O)O)n1Cc1ccc(C(=O)O)cc1 | 246 to 247
CCC(Cl)(CC)C(CO)N=O (centres undefined) | 130
COC(=O)c1cccn1Cc1ccccc1[N+](=O)[O-] | 105 to 107
O=C(CCCN1CCC(NC(=O)c2ccccc2)CC1)c1ccc(Cl)cc1 | 243 to 244
COc1cc(OC(C)(C)C(=O)O)c(-c2cccs2)cc1C=O | 183 to 184
COC(=O)Cc1ccc2c(c1)C(=O)Cc1ccccc1C2 | 111 to 112
CC1(c2ccc([N+](=O)[O-])cc2)Cc2cc(OCC(=O)O)c(Cl)c(Cl)c2C1=O (centres undefined) | 202 to 205
CN1CCCC1=NC(=O)Nc1cccc(Br)c1 | 138 to 149
CCC1(Cl)NN=C2C=Nc3cc(Cl)c(Cl)cc3N21 (centres undefined) | 198 to 201
CCNc1nc(NCC)nc(NCC)n1 | 74
Cc1ccc(S(=O)(=O)n2ccc3c(-c4c(-c5ccc(F)cc5)nc5ccc(N6CCN[C@H](C)C6)nn45)ccnc32)cc1 | 253 to 256

Compound | melting point [°C]
CCCc1ccc(-n2ncc(C#N)c2N(C(C)=O)C(C)=O)c(Cl)c1 | 110 to 112
CN1CCC(c2c[nH]c3ccc(Sc4ccccc4)cc23)CC1 | 147 to 150
CCNc1nc(NC(C)C)cc(NS(=O)(=O)c2ccc(N)cc2)n1 | 258 to 259
O=c1[nH]c2c(c3nc(-c4ccccc4Cl)nn13)CN(Cc1ccccc1)CC2 | 295 to 296
CCOC(=O)C(NC(=O)Cc1ccc(N)cn1)C(=O)OCC | 89 to 90
Cn1c(-c2ccccc2Cl)cc2ncccc2c1=O | 152 to 153
CSCCOC(=O)N(C)c1cnc(-c2cncc(F)c2)s1 | 115 to 117
CCCCN(CCCC)S(=O)(=O)N[C@@H](Cc1ccc(NC(=O)c2c(Cl)cncc2Cl)cc1)C(=O)O | 167
CCOC(=O)C[C@@H]1C(=O)N(S(=O)(=O)c2ccc(OC)cc2)C=C[C@@H]1c1ccccc1 | 111 to 113
COc1ccc(N2C(=S)N(c3ccc(Oc4ccccc4)cc3)C(=O)C2C)cc1 (centres undefined) | 208 to 210
CN1CCOc2cc(S(=O)(=O)n3c(COC(C)(C)C(=O)O)cc4cc(Cl)ccc43)ccc21 | 148 to 150
Clc1ccc2oc(-c3ccccc3)cc2c1 | 140 to 143
CON1C=C2N=NC3=C(N2C1)N(c1ccccc1Cl)CC=C3 | 190 to 193
Clc1nc2ccccc2c2c1ncn2Cc1ccncc1 | > 300
COc1ccc(C(=O)Nc2ccc3ccc(Oc4ccc(Cl)c(Cl)c4)nc3n2)cc1 | 180
CCN1c2ncc(C=Cc3cccc(C)c3)cc2C(=O)N(C)c2cccnc21 | 207 to 208
CCOC(=O)c1c(N2CCN(C(=O)c3ccco3)CC2)c2cc(F)cnc2n(CC(=O)c2ccccc2)c1=O | 134
Cn1c(=O)c(N=C=O)c(-c2ccccc2Cl)c2cc(Cl)ccc21 | 204 to 206
O=C(O)c1ccc(C#Cc2ccc(O)c(C34CC5CC(CC(C5)C3)C4)c2)cc1 | 254 to 255
CON=CCOc1ccccc1S(N)(=O)=O | 103 to 105
Oc1ccc(C2CCc3ccc(O)cc3O2)cc1 (centres undefined) | 110 to 111
Cn1c(-c2ccc(-c3ccco3)cc2)cnc1[C@H](Cc1ccccn1)N(C=O)OC(C)(C)C | 131 to 135
COC(=O)C=NOCC(=O)C=CN(C)C | 63 to 64
Cc1ccc(S(=O)(=O)c2ccc3[nH]c(C)c(CCNC(=O)OC(C)(C)C)c3c2)cc1 | 134 to 138
Oc1ccc(-c2cc3cc(O)ccc3o2)cc1 | 218 to 222

Compound | melting point [°C]
CC(=O)OC1CC2CCC3C(CCC4(C)C3CC(N3CCCCC3)C4OC(C)=O)C2(C)CC1N1CCOCC1 (centres undefined) | 119 to 128
CCCn1nc(C(N)=O)cc1CC(C)C | 141 to 142
CC(=O)Nc1ccc(S(=O)(=O)Nc2ccn(C3CC3)c(=O)n2)cc1 | 139 to 143
COc1ccc(CSc2ccc(OCC(=O)O)c3c2CCC3)cc1OCc1ccc(C(F)(F)F)cc1 | 150 to 151
O=C(NCCc1ccn(-c2cc3nc(C(=O)O)c(=O)[nH]c3cc2F)c1)Nc1ccc(C(=O)O)cc1 | > 300
CS(=O)(=O)c1ccc(-c2cnn(CC(F)(F)F)c(=O)c2OC2CCCC2)cc1 | 148 to 150
CC(C)(C)C(NC(=O)c1ccc(F)cc1)NC(=NC#N)Nc1cccnc1 (centres undefined) | 195 to 196
Clc1cccc(-c2nc(Cl)cc(Cl)n2)c1 | 118 to 120
C=Cc1cnc2c([N+](=O)[O-])cccc2c1 | 116 to 117
CCCCCn1c2ccc(C(=S)N3CCCCC3)cc2c2ccc(OC)cc21 | 116 to 118
O=C1CCC2CC(O)C(=O)N12 (centres undefined) | 135 to 140
COc1cc(C2CCN(C(=O)CN)CC2)ccc1Nc1ncc2ccc(-c3ccccc3OC)n2n1 | 86 to 99
NC(=O)c1nn(S(=O)(=O)c2ccccc2)c2ccccc12 | 208 to 210
CC(C)n1nc(-c2c(NCc3ccccn3)nc(N)nc2-c2ccccc2)ccc1=O | 196 to 198
COc1cc(C2C3=C(COC3=O)N(Cc3ccc([N+](=O)[O-])cc3)c3cc4c(cc32)OCO4)cc(OC)c1O (centres undefined) | 193
O=C1CCCc2cc3c(cc21)sc1ccccc13 | 160 to 165
CNS(=O)(=O)c1ccc2c(c1)S(=O)(=O)N=C1CCCN12 | 244 to 247
O=c1ccc2nc3ccccc3sc-2c1Cl | 221
CC(C)n1nc(CO)cc1OCc1ccc2ccccc2n1 | 118 to 119
CC(C)(C)C(O)C(=Cn1ccnc1)Oc1ccc(F)cc1 (centres undefined) | 112 to 113
CCOC(=O)c1[nH]cc(-c2ccc(F)cc2)c1-c1ccccc1 | 145 to 146
CC(CC1C(C(=O)O)C1(C)C)=C(Cl)Cl (centres undefined) | 58.5 to 60
CCOC(=O)c1ncc2[nH]c3ccc(Br)cc3c2c1C | 231 to 232
O=C(O)CCCNC(=O)n1cc(F)c(=O)[nH]c1=O | 146 to 147
